ChEMBL document CHEMBL3044736, “Synthesis, characterization, solvatochromic properties, and antimicrobial evaluation of 5-acetyl-2-thioxo-dihydro-pyrimidine-4,6-dione-based chalcones” (2013)
In brackets after ≈: the same amount, converted by molar mass.

How the values were obtained:
Format in all cases: functional
Pseudomonas aeruginosa [1] = assay: Antimicrobial activity against Pseudomonas aeruginosa MTCC 1688 assessed as diameter of growth inhibition zone at 100 ug/ml after 18-24 hr by agar cup diffusion method; conditions: read-out: DIZ
Staphylococcus aureus [2] = assay: Antimicrobial activity against Staphylococcus aureus MTCC 96 assessed as diameter of growth inhibition zone at 50 ug/ml after 18-24 hr by agar cup diffusion method; conditions: read-out: DIZ
Streptococcus pyogenes [3] = assay: Antimicrobial activity against Streptococcus pyogenes MTCC 442 assessed as diameter of growth inhibition zone at 250 ug/ml after 18-24 hr by agar cup diffusion method; conditions: read-out: DIZ
Trichophyton rubrum [4] = assay: Antimicrobial activity against Trichophyton rubrum MTCC 296 assessed as diameter of growth inhibition zone at 250 ug/ml after 48-96 hr by agar cup diffusion method; conditions: read-out: DIZ
Klebsiella pneumoniae [5] = assay: Antimicrobial activity against Klebsiella pneumoniae MTCC 109 assessed as diameter of growth inhibition zone at 25 ug/ml after 18-24 hr by agar cup diffusion method; conditions: read-out: DIZ
Pseudomonas aeruginosa [6] = assay: Antimicrobial activity against Pseudomonas aeruginosa MTCC 1688 by agar cup diffusion method
Candida albicans [7] = assay: Antimicrobial activity against Candida albicans MTCC 227 assessed as diameter of growth inhibition zone at 250 ug/ml after 48-96 hr by agar cup diffusion method; conditions: read-out: DIZ
Klebsiella pneumoniae [8] = assay: Antimicrobial activity against Klebsiella pneumoniae MTCC 109 assessed as diameter of growth inhibition zone at 50 ug/ml after 18-24 hr by agar cup diffusion method; conditions: read-out: DIZ
Staphylococcus aureus [9] = assay: Antimicrobial activity against Staphylococcus aureus MTCC 96 assessed as diameter of growth inhibition zone at 100 ug/ml after 18-24 hr by agar cup diffusion method; conditions: read-out: DIZ
Trichophyton rubrum [10] = assay: Antimicrobial activity against Trichophyton rubrum MTCC 296 assessed as diameter of growth inhibition zone at 25 ug/ml after 48-96 hr by agar cup diffusion method; conditions: read-out: DIZ
Candida albicans [11] = assay: Antimicrobial activity against Candida albicans MTCC 227 assessed as diameter of growth inhibition zone at 50 ug/ml after 48-96 hr by agar cup diffusion method; conditions: read-out: DIZ
Aspergillus clavatus [12] = assay: Antimicrobial activity against Aspergillus clavatus MTCC 1323 assessed as diameter of growth inhibition zone at 50 ug/ml after 48-96 hr by agar cup diffusion method; conditions: read-out: DIZ
Penicillium [13] = assay: Antimicrobial activity against Penicillium wild strain assessed as diameter of growth inhibition zone at 50 ug/ml after 48-96 hr by agar cup diffusion method; conditions: read-out: DIZ
Klebsiella pneumoniae [14] = assay: Antimicrobial activity against Klebsiella pneumoniae MTCC 109 assessed as diameter of growth inhibition zone at 100 ug/ml after 18-24 hr by agar cup diffusion method; conditions: read-out: DIZ
Aspergillus clavatus [15] = assay: Antimicrobial activity against Aspergillus clavatus MTCC 1323 assessed as diameter of growth inhibition zone at 25 ug/ml after 48-96 hr by agar cup diffusion method; conditions: read-out: DIZ
Escherichia coli [16] = assay: Antimicrobial activity against Escherichia coli MTCC 443 assessed as diameter of growth inhibition zone at 25 ug/ml after 18-24 hr by agar cup diffusion method; conditions: read-out: DIZ
Staphylococcus aureus [17] = assay: Antimicrobial activity against Staphylococcus aureus MTCC 96 assessed as diameter of growth inhibition zone at 25 ug/ml after 18-24 hr by agar cup diffusion method; conditions: read-out: DIZ
Penicillium [18] = assay: Antimicrobial activity against Penicillium wild strain assessed as diameter of growth inhibition zone at 100 ug/ml after 48-96 hr by agar cup diffusion method; conditions: read-out: DIZ
Trichophyton rubrum [19] = assay: Antimicrobial activity against Trichophyton rubrum MTCC 296 assessed as diameter of growth inhibition zone at 50 ug/ml after 48-96 hr by agar cup diffusion method; conditions: read-out: DIZ
Staphylococcus aureus [20] = assay: Antimicrobial activity against Staphylococcus aureus MTCC 96 by agar cup diffusion method
Klebsiella pneumoniae [21] = assay: Antimicrobial activity against Klebsiella pneumoniae MTCC 109 assessed as diameter of growth inhibition zone at 250 ug/ml after 18-24 hr by agar cup diffusion method; conditions: read-out: DIZ
Aspergillus clavatus [22] = assay: Antimicrobial activity against Aspergillus clavatus MTCC 1323 by agar cup diffusion method
Pseudomonas aeruginosa [23] = assay: Antimicrobial activity against Pseudomonas aeruginosa MTCC 1688 assessed as diameter of growth inhibition zone at 25 ug/ml after 18-24 hr by agar cup diffusion method; conditions: read-out: DIZ
Streptococcus pyogenes [24] = assay: Antimicrobial activity against Streptococcus pyogenes MTCC 442 assessed as diameter of growth inhibition zone at 100 ug/ml after 18-24 hr by agar cup diffusion method; conditions: read-out: DIZ
Streptococcus pyogenes [25] = assay: Antimicrobial activity against Streptococcus pyogenes MTCC 442 assessed as diameter of growth inhibition zone at 50 ug/ml after 18-24 hr by agar cup diffusion method; conditions: read-out: DIZ
Penicillium [26] = assay: Antimicrobial activity against Penicillium wild strain by agar cup diffusion method
Pseudomonas aeruginosa [27] = assay: Antimicrobial activity against Pseudomonas aeruginosa MTCC 1688 assessed as diameter of growth inhibition zone at 250 ug/ml after 18-24 hr by agar cup diffusion method; conditions: read-out: DIZ
Escherichia coli [28] = assay: Antimicrobial activity against Escherichia coli MTCC 443 assessed as diameter of growth inhibition zone at 250 ug/ml after 18-24 hr by agar cup diffusion method; conditions: read-out: DIZ
Pseudomonas aeruginosa [29] = assay: Antimicrobial activity against Pseudomonas aeruginosa MTCC 1688 assessed as diameter of growth inhibition zone at 50 ug/ml after 18-24 hr by agar cup diffusion method; conditions: read-out: DIZ
Escherichia coli [30] = assay: Antimicrobial activity against Escherichia coli MTCC 443 assessed as diameter of growth inhibition zone at 50 ug/ml after 18-24 hr by agar cup diffusion method; conditions: read-out: DIZ
Escherichia coli [31] = assay: Antimicrobial activity against Escherichia coli MTCC 443 by agar cup diffusion method
Candida albicans [32] = assay: Antimicrobial activity against Candida albicans MTCC 227 assessed as diameter of growth inhibition zone at 100 ug/ml after 48-96 hr by agar cup diffusion method; conditions: read-out: DIZ
Klebsiella pneumoniae [33] = assay: Antimicrobial activity against Klebsiella pneumoniae MTCC 109 by agar cup diffusion method
Escherichia coli [34] = assay: Antimicrobial activity against Escherichia coli MTCC 443 assessed as diameter of growth inhibition zone at 100 ug/ml after 18-24 hr by agar cup diffusion method; conditions: read-out: DIZ
Penicillium [35] = assay: Antimicrobial activity against Penicillium wild strain assessed as diameter of growth inhibition zone at 25 ug/ml after 48-96 hr by agar cup diffusion method; conditions: read-out: DIZ
Candida albicans [36] = assay: Antimicrobial activity against Candida albicans MTCC 227 by agar cup diffusion method
Trichophyton rubrum [37] = assay: Antimicrobial activity against Trichophyton rubrum MTCC 296 assessed as diameter of growth inhibition zone at 100 ug/ml after 48-96 hr by agar cup diffusion method; conditions: read-out: DIZ
Trichophyton rubrum [38] = assay: Antimicrobial activity against Trichophyton rubrum MTCC 296 by agar cup diffusion method
Staphylococcus aureus [39] = assay: Antimicrobial activity against Staphylococcus aureus MTCC 96 assessed as diameter of growth inhibition zone at 250 ug/ml after 18-24 hr by agar cup diffusion method; conditions: read-out: DIZ
Aspergillus clavatus [40] = assay: Antimicrobial activity against Aspergillus clavatus MTCC 1323 assessed as diameter of growth inhibition zone at 100 ug/ml after 48-96 hr by agar cup diffusion method; conditions: read-out: DIZ
Aspergillus clavatus [41] = assay: Antimicrobial activity against Aspergillus clavatus MTCC 1323 assessed as diameter of growth inhibition zone at 250 ug/ml after 48-96 hr by agar cup diffusion method; conditions: read-out: DIZ
Candida albicans [42] = assay: Antimicrobial activity against Candida albicans MTCC 227 assessed as diameter of growth inhibition zone at 25 ug/ml after 48-96 hr by agar cup diffusion method; conditions: read-out: DIZ
Streptococcus pyogenes [43] = assay: Antimicrobial activity against Streptococcus pyogenes MTCC 442 assessed as diameter of growth inhibition zone at 25 ug/ml after 18-24 hr by agar cup diffusion method; conditions: read-out: DIZ
Streptococcus pyogenes [44] = assay: Antimicrobial activity against Streptococcus pyogenes MTCC 442 by agar cup diffusion method
Penicillium [45] = assay: Antimicrobial activity against Penicillium wild strain assessed as diameter of growth inhibition zone at 250 ug/ml after 48-96 hr by agar cup diffusion method; conditions: read-out: DIZ

Compound `O=C(/C=C/c1cccc([N+](=O)[O-])c1)C1C(=O)NC(=S)NC1=O` has a zone of inhibition at 100 µg/mL (Pseudomonas aeruginosa [1]) of 17 mm, a zone of inhibition at 50 µg/mL (Staphylococcus aureus [2]) of 16 mm and a zone of inhibition at 250 µg/mL (Streptococcus pyogenes [3]) of 18 mm. The zone of inhibition at 250 µg/mL (Trichophyton rubrum [4]) was 27 mm, the zone of inhibition at 25 µg/mL (Klebsiella pneumoniae [5]) was 10 mm and the MBC (Pseudomonas aeruginosa [6]) was 200 µg/mL (≈ 626 µM). The MIC (Pseudomonas aeruginosa [6]) was 125 µg/mL (≈ 391 µM), the zone of inhibition at 250 µg/mL (Candida albicans [7]) was 24 mm and the zone of inhibition at 50 µg/mL (Klebsiella pneumoniae [8]) was 14 mm. The zone of inhibition at 100 µg/mL (Staphylococcus aureus [9]) was 17 mm, the zone of inhibition at 25 µg/mL (Trichophyton rubrum [10]) was 18 mm and the zone of inhibition at 50 µg/mL (Candida albicans [11]) was 22 mm. The zone of inhibition at 50 µg/mL (Aspergillus clavatus [12]) was 22 mm, the zone of inhibition at 50 µg/mL (Penicillium [13]) was 20 mm and the zone of inhibition at 100 µg/mL (Klebsiella pneumoniae [14]) was 17 mm. For the same compound, the zone of inhibition at 25 µg/mL (Aspergillus clavatus [15]) was 20 mm, the zone of inhibition at 25 µg/mL (Escherichia coli [16]) was 15 mm and the zone of inhibition at 25 µg/mL (Staphylococcus aureus [17]) was 14 mm. It also gave a zone of inhibition at 100 µg/mL (Penicillium [18]) of 21 mm, a zone of inhibition at 50 µg/mL (Trichophyton rubrum [19]) of 21 mm and an MBC (Staphylococcus aureus [20]) of 250 µg/mL (≈ 783 µM). It also gave an MIC (Staphylococcus aureus [20]) of 200 µg/mL (≈ 626 µM), a zone of inhibition at 250 µg/mL (Klebsiella pneumoniae [21]) of 18 mm and an MFC (Aspergillus clavatus [22]) of 1000 µg/mL (≈ 3130 µM). For the same compound, the MIC (Aspergillus clavatus [22]) was 1000 µg/mL (≈ 3130 µM), the zone of inhibition at 25 µg/mL (Pseudomonas aeruginosa [23]) was 14 mm and the zone of inhibition at 100 µg/mL (Streptococcus pyogenes [24]) was 18 mm. It also gave a zone of inhibition at 50 µg/mL (Streptococcus pyogenes [25]) of 17 mm, an MFC (Penicillium [26]) of 1000 µg/mL (≈ 3130 µM) and an MIC (Penicillium [26]) of 1000 µg/mL (≈ 3130 µM). The zone of inhibition at 250 µg/mL (Pseudomonas aeruginosa [27]) was 19 mm, the zone of inhibition at 250 µg/mL (Escherichia coli [28]) was 18 mm and the zone of inhibition at 50 µg/mL (Pseudomonas aeruginosa [29]) was 16 mm. The zone of inhibition at 50 µg/mL (Escherichia coli [30]) was 17 mm, the MBC (Escherichia coli [31]) was 100 µg/mL (≈ 313 µM) and the MIC (Escherichia coli [31]) was 100 µg/mL (≈ 313 µM). For the same compound, the zone of inhibition at 100 µg/mL (Candida albicans [32]) was 23 mm, the MBC (Klebsiella pneumoniae [33]) was 100 µg/mL (≈ 313 µM) and the MIC (Klebsiella pneumoniae [33]) was 62.5 µg/mL (≈ 196 µM). The zone of inhibition at 100 µg/mL (Escherichia coli [34]) was 18 mm, the zone of inhibition at 25 µg/mL (Penicillium [35]) was 18 mm and the MFC (Candida albicans [36]) was 1000 µg/mL (≈ 3130 µM). For the same compound, the MIC (Candida albicans [36]) was 1000 µg/mL (≈ 3130 µM), the zone of inhibition at 100 µg/mL (Trichophyton rubrum [37]) was 22 mm and the MFC (Trichophyton rubrum [38]) was 1000 µg/mL (≈ 3130 µM). It also gave an MIC (Trichophyton rubrum [38]) of 1000 µg/mL (≈ 3130 µM), a zone of inhibition at 250 µg/mL (Staphylococcus aureus [39]) of 19 mm and a zone of inhibition at 100 µg/mL (Aspergillus clavatus [40]) of 22 mm. It also gave a zone of inhibition at 250 µg/mL (Aspergillus clavatus [41]) of 24 mm, a zone of inhibition at 25 µg/mL (Candida albicans [42]) of 21 mm and a zone of inhibition at 25 µg/mL (Streptococcus pyogenes [43]) of 15 mm. It also gave an MBC (Streptococcus pyogenes [44]) of 250 µg/mL (≈ 783 µM), an MIC (Streptococcus pyogenes [44]) of 200 µg/mL (≈ 626 µM) and a zone of inhibition at 250 µg/mL (Penicillium [45]) of 22 mm.
